Tests used:
[1] = target: Ba/F3 KRAS-G12D cells (Homo sapiens, UniProt P01116, G12D, cells depend on it); test: Proliferation inhibitory activity on Ba/F3 KRAS-G12D stably transfected cell line (CellTiter-Glo, 72 hours); type: cell-based, mouse; settings: read-out: Ba/F3 KRAS-G12D IC50
Description: (§1) Test Example 1: Proliferation Inhibitory Activity on Ba/F3 KRAS-G12D, Ba/F3 KRAS-G12V Stably Transfected Cell Lines and AGS Tumor Cell Lines Containing KRAS G12D Mutations
(§2) To determine the proliferation inhibitory activity of the compounds in vitro on mouse pro-B cells Ba/F3 (Ba/F3 KRAS-G12D and Ba/F3 KRAS-G12V cells stably expressing KRAS G12D/V mutant proteins) and gastric cancer AGS cells expressing KRAS G12D mutant protein.
(§3) Cell sources. Ba/F3 KRAS-G12D and Ba/F3 KRAS-G12V were purchased from Kyinno Biotech (Beijing) Co., Ltd, Cat. No.: KC-1259 and KC-1261, respectively; AGS was purchased from Shanghai Bioleaf Biotech Co., Ltd.
(§4) Cells in the logarithmic growth phase were seeded in a 96-well plate (8000, 8000, 4000 cells/well, 90 μL/well for Ba/F3 KRAS-G12D, Ba/F3 KRAS-G12V, and AGS cells respectively), incubated at 37° C. for 1 day with 5% CO2, and then a gradient dilution of the test compound was added thereto (compounds 1 to 28 and comparative compounds). The details were as follows, the compound stock solution (10 mM) previously dissolved in DMSO was diluted to 10 gradient concentrations at a fold ratio (4 fold) and diluted to 10 fold of the target concentration in another 96-well plate with culture medium, and then 10 μL/well of the compound solution was added to the 96-well plate seeded with cells to reach the target concentration (10000, 2500, 625, 156, 39, 10, 2.5, 0.6, 0.15, 0.04 nM). Each concentration was provided with 3 duplicate wells and a blank control. After continued incubation at 37° C. and 5% CO2 for 72 hours, 50 μL of CellTiter-Glo*2.0 reagent (luciferase ATP bioluminescence detection reagent, purchased from Promega, Cat. No.: G9243) was added to each well, shaken for 2 minutes, and incubated at room temperature for 8 minutes, and then fluorescence luminescence intensity was detected (light collection time was 100 ms). The inhibitory rate of compounds with various concentrations on cell proliferation was calculated. Cell proliferation inhibition rate (%)=[(luminous intensitycontrol group containing cell culture medium for 72 hour−luminous intensitycompound group for 72 hour)/(luminous intensitycontrol group containing cell culture medium for 72 hours−luminous intensitycontrol group without cell culture medium for 72 hour)]×100%. GraphPad Prism 8.3 software was used to analyze the data, and nonlinear S-curve regression was used to fit the data to obtain a dose-effect curve, from which the IC50 value was calculated.

[2] = target: Ba/F3 KRAS-G12V cells (Homo sapiens, UniProt P01116, G12V, cells depend on it); test: Proliferation inhibitory activity on Ba/F3 KRAS-G12V stably transfected cell line (CellTiter-Glo, 72 hours); type: cell-based, mouse; settings: read-out: Ba/F3 KRAS-G12V IC50
Chain of Ba/F3 KRAS-G12V cells (P01116 whole entry G12V): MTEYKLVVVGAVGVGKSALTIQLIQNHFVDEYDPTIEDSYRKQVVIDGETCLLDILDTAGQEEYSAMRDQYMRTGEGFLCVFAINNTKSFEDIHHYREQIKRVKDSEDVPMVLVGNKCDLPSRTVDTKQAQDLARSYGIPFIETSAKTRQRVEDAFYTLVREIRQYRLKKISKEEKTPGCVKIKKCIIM
Description: as §1, §2, §3, §4

[3] = tested on: AGS cells; test: Proliferation inhibitory activity on AGS tumor cell line containing KRAS G12D mutation (CellTiter-Glo, 72 hours); type: cell-based; settings: Homo sapiens
Description: as §1, §2, §3, §4

[4] = Body weight change of mice in HPAC xenograft model; type: in vivo; settings: 30 mg/kg intraperitoneally twice a day for 10 days, vs D0 weight, HPAC xenograft in BALB/c nude mice
Method: Experimental scheme: BALB/c nude mice were subcutaneously inoculated with HPAC cells to establish a cell line xenograft tumor model. The test was divided into a 30 mg/kg group of compound 21, a 30 mg/kg group of comparative compound, and a vehicle group, with 5 mice in each group. The mice were administered intraperitoneally in an administration volume of 10 μL/g. The vehicle group was given an equal amount of vehicle (sulfobutyl-β-cyclodextrin sodium salt dissolved in 50 mM citric acid buffer, the mass-to-volume concentration of sulfobutyl-β-cyclodextrin sodium salt was 10%, and the pH value of the vehicle was 5.0), administered twice a day for 10 days. During the entire experiment, the body weight and tumor size of the mice were measured on days 4, 7, and 10 to observe whether toxic reactions occurred. Efficacy was evaluated based on relative tumor proliferation rate. Other compounds of the present disclosure (compounds 1 to 20 and 22 to 28) were tested with reference to compound 21. Formula for calculating weight change: weight change (%)=(weight/D0 weight−1)×100%.

[5] = tested on: HPAC cells; test: In vivo efficacy in HPAC cell line xenograft tumor model; settings: 30 mg/kg intraperitoneally twice a day for 10 days, day 10 vs day 0, HPAC xenograft in BALB/c nude mice
Method: Test Example 2: In Vivo Efficacy of Test Compounds in HPAC Model
This experiment is used to evaluate the in vivo efficacy of compounds in the HPAC model.
Source of experimental animals: Beijing Vital River Laboratory Animal Technology Co., Ltd., certificate number: 20170011007990.
Animal modeling and random grouping: HPAC cells were cultured and expanded to 30 T175 cm^2 culture flasks. Cells were collected, resuspended in serum-free culture medium DMEM for counting, and added with matrix glue at a ratio of 1:1, and inoculated into the right anterior subcutaneous region of BALB/c Nude mice at 5×10^6 cells/0.1 mL. When the average tumor volume reached approximately 281 mm^3, mice were randomly divided into various experimental groups according to tumor size, with 5 mice per group. The day of grouping was defined as day 0, that is, DO.
Experimental scheme: BALB/c nude mice were subcutaneously inoculated with HPAC cells to establish a cell line xenograft tumor model. The test was divided into a 30 mg/kg group of compound 21, a 30 mg/kg group of comparative compound, and a vehicle group, with 5 mice in each group. […] During the entire experiment, the body weight and tumor size of the mice were measured on days 4, 7, and 10 to observe whether toxic reactions occurred. Efficacy was evaluated based on relative tumor proliferation rate. […]

Chain of Ba/F3 KRAS-G12D cells (P01116 whole entry G12D): as the sequence (P01116 whole entry G12V) above, with V12D counted along it

Q: For `C#Cc1c(F)ccc2cc(O)cc(-c3nc(Cl)c4c(N5C[C@H]6CC[C@@H](C5)N6)nc(OC[C@@]56CCCN5C[C@H](F)C6)nc4c3F)c12` [Compound 21, 4-(4-((1R,5S)-3,8-Diazabicyclo[3.2.1]octan-3-yl)-5-chloro-8-fluoro-2-(((2R,7aS)-2-fluorohexahydro-1H-pyrrolizin-7a-yl)methoxy)pyrido[4,3-d]pyrimidin-7-yl)-5-ethynyl-6-fluoronaphthalen-2-ol], which GI50 [1] is on record?
A: Its GI50 is 1 nM.

Q: And the GI50 [2]?
A: The GI50 was 5000 to 10000 nM.

Q: What about the IC50 [3] of the same compound?
A: Its IC50 is 9 nM.

Q: And the “Weight change (%)” value [4]?
A: Its value is −7.27%.

Q: And the “T/C % (relative tumor proliferation rate)” value [5]?
A: The value was −64.96%.

Reference: patent US20240368192A1, “Nitrogen-Containing Heterocyclic Compound, and Preparation Method Therefor, Intermediate Thereof, and Application Thereof” (Shanghai Allist Pharmaceuticals Co., Ltd., priority 2021, published 2024)
